Data on 30 molecules can be found in ChEMBL document CHEMBL4765339, “Design, synthesis, and biological evaluation of 4-substituted-3,4-dihydrobenzo[h]quinoline-2,5,6(1H)-triones as NQO1-directed antitumor agents” (Eur J Med Chem, 2020).

Data set [1] has as its target NAD(P)H dehydrogenase [quinone] 1 (Homo sapiens) (UniProt P15559). The experiment in a line: Substrate activity at recombinant human C-terminal His-tagged NQO1 (1 to 274 residues) expressed in Escherichia coli assessed as enzyme activity by measuring oxidation of NADPH incubated for 5 mins measured per micromol of enzyme every 5 sec for 1 mins by UV-visible spectrophotometry.

A short description of data set [2]: Selectivity index, ratio of GI50 for human HepG2 cells pretreated for 1 hr with NQO1 inhibitor, dicoumarol followed by incubation with compound for 48 hrs to GI50 for human HepG2 cells measured after 48 hrs by MTT assay. In kind it is functional.
The test system of data set [3] is HepG2. Kind of data set: Antitumor activity against human HepG2 cells xenografted in athymic nude mouse assessed as inhibition of tumor growth at 20 mg/kg, iv administered once every 2 days for 19 days by caliper analysis relative to control. In kind it is functional. Conditions: 456 h, time 19 day.
For data set [4], the system named is HepG2. Kind of data set: Induction of ROS generation in human HepG2 cells at 5 uM by DCFH-DA staining based flow cytometry analysis. In kind it is functional, cell-based. Conditions: time 3-5 hrs, TDE = time-dependent effect.
Data set [5] deals with A549. The experiment in a line: Cytotoxicity against human A549 cells assessed as reduction in cell growth pretreated for 1 hr with NQO1 inhibitor, dicoumarol followed by incubation with compound for 48 hrs by MTT assay. The format is functional.
A short description of data set [6]: Selectivity index, ratio of GI50 for human A549 cells pretreated for 1 hr with NQO1 inhibitor, dicoumarol followed by incubation with compound for 48 hrs to GI50 for human A549 cells measured after 48 hrs by MTT assay. In kind it is functional.
Another data set deals with MCF7. Kind of data set: Cytotoxicity against NQO1-rich human MCF7 cells assessed as reduction in cell growth incubated for 48 hrs by MTT assay. The format is functional.
Data set [7] can be described thus: Selectivity index, ratio of GI50 for human HepG2 cells pretreated for 1 hr with ROS scavenger, N-acetyl cysteine followed by incubation with compound for 48 hrs to GI50 for human HepG2 cells measured after 48 hrs by MTT assay. In kind it is functional.
Data set [8] concerns A549. The experiment in a line: Cytotoxicity against human A549 cells assessed as reduction in cell growth incubated for 48 hrs by MTT assay. In kind it is functional.
Data set [9] can be described thus: Cytotoxicity against human L02 cells assessed as reduction in cell growth incubated for 48 hrs by MTT assay. In kind it is cell-based.
Data set [10] deals with HepG2. Kind of data set: Cytotoxicity against human HepG2 cells assessed as reduction in cell growth incubated for 48 hrs by MTT assay. The format is functional.
Data set [11] concerns HepG2. Kind of data set: Cytotoxicity against human HepG2 cells assessed as reduction in cell growth pretreated for 1 hr with NQO1 inhibitor, dicoumarol followed by incubation with compound for 48 hrs by MTT assay. The format is functional.
Data set [12] has as its system HepG2. Kind of data set: Cytotoxicity against human HepG2 cells assessed as reduction in cell growth pretreated for 1 hr with ROS scavenger, N-acetyl cysteine followed by incubation with compound for 48 hrs by MTT assay. In kind it is functional.
Data set [13] can be described thus: Selectivity index, ratio of GI50 for human A549 cells pretreated for 1 hr with ROS scavenger, N-acetyl cysteine followed by incubation with compound for 48 hrs to GI50 for human A549 cells measured after 48 hrs by MTT assay. In kind it is functional.
Data set [14] concerns A549. The experiment in a line: Cytotoxicity against human A549 cells assessed as reduction in cell growth pretreated for 1 hr with ROS scavenger, N-acetyl cysteine followed by incubation with compound for 48 hrs by MTT assay. In kind it is functional.

On to `O=C1CC(c2ccc(F)cc2F)C2=C(N1)c1ccccc1C(=O)C2=O` (stereo not drawn), for which the Activity in data set [1] worked out at 936 µmol/min.

`CC1(C)CCC2=C(O1)c1ccccc1C(=O)C2=O` [LAPACHONE]: the RatioGI50 in data set [2], in [6], in [7] and in data set [13] was 2 in each case. Besides, the inhibition in vivo at 20 mg/kg with HepG2 [3] was 67.3%. Also, in the data set with HepG2 [4], the Activity entry was “Tde”. Besides, the GI50 with A549 [5] amounted to 6 µM; with MCF7, 4.17 µM; in the data set on A549 [8], 3.32 µM; with HepG2 [10], 2.83 µM; in the data set on HepG2 [11], 6.3 µM; in the data set with HepG2 [12], 6.21 µM. Besides, the GI50 in the data set on A549 [14] came out at 6.19 µM. Moreover, the GI50 at 48 h in [9] worked out at 4.54 µM.

`COc1ccc(C2CC(=O)NC3=C2C(=O)C(=O)c2ccccc23)cc1F` (stereo not drawn): in [1], the Activity turned out to be 192 µmol/min.

As for `COc1cccc(C2CC(=O)NC3=C2C(=O)C(=O)c2ccccc23)c1` (stereo not drawn), in data set [1], the Activity came to 586 µmol/min.

Consider `COc1cc(C2CC(=O)NC3=C2C(=O)C(=O)c2ccccc23)cc(OC)c1OC` (stereo not drawn), for which the Activity in data set [1] is 684 µmol/min.

For the molecule `O=C1CC(c2cccc(C(F)(F)F)c2)C2=C(N1)c1ccccc1C(=O)C2=O` (stereo not drawn), the results for the GI50 in the data set on MCF7, in the data set on A549 [8] and in the data set on HepG2 [10] were 8.96 µM, 12.6 µM and 4.24 µM, respectively. Also, the Activity in data set [1] was found to be 1030 µmol/min.

On to `O=C1CC(c2ccccc2Cl)C2=C(N1)c1ccccc1C(=O)C2=O` (stereo not drawn), for which the Activity in data set [1] is 467 µmol/min.

`Cc1ccccc1C1CC(=O)NC2=C1C(=O)C(=O)c1ccccc12` (stereo not drawn): the Activity in [1] came out at 448 µmol/min.

On to `COc1cc(OC)cc(C2CC(=O)NC3=C2C(=O)C(=O)c2ccccc23)c1` (stereo not drawn), for which the Activity in data set [1] was found to be 194 µmol/min.

As for `O=C1CC(C2CCCC2)C2=C(N1)c1ccccc1C(=O)C2=O` (stereo not drawn), in [1], the Activity turned out to be 491 µmol/min.

Regarding `O=C1CC(c2c(F)cccc2F)C2=C(N1)c1ccccc1C(=O)C2=O` (stereo not drawn), the Activity in data set [1] turned out to be 160 µmol/min.

Turning to `O=C1CC(c2ccccc2)C2=C(N1)c1ccccc1C(=O)C2=O` (stereo not drawn), the GI50 stood at 15.3 µM with MCF7, 11.7 µM in the data set on A549 [8] and 3.09 µM with HepG2 [10]. Moreover, in [1], the Activity turned out to be 364 µmol/min.

Take `O=C1CC(c2cccs2)C2=C(N1)c1ccccc1C(=O)C2=O` (stereo not drawn): the Activity in data set [1] is 621 µmol/min.

In the case of `O=C1CC(c2ccc(Cl)cc2Cl)C2=C(N1)c1ccccc1C(=O)C2=O` (stereo not drawn), the GI50 with MCF7 was 8.81 µM; with A549 [8], 3.13 µM; in the data set with HepG2 [10], 3.27 µM. Further, the Activity in [1] turned out to be 760 µmol/min.

As to `O=C1CC(c2ccccc2F)C2=C(N1)c1ccccc1C(=O)C2=O` (stereo not drawn), the 50% growth inhibitory concentration (GI50) turned out to be 2.3 µM in the data set with MCF7, 3.89 µM in the data set with A549 [8] and 2.57 µM in the data set with HepG2 [10]. Further, the Activity in [1] stood at 1360 µmol/min.

Regarding `O=C1CC(c2cc([N+](=O)[O-])ccc2Cl)C2=C(N1)c1ccccc1C(=O)C2=O` (stereo not drawn), the Activity in [1] amounted to 195 µmol/min.

Regarding `CCCC1CC(=O)NC2=C1C(=O)C(=O)c1ccccc12` (stereo not drawn), the Activity in data set [1] came out at 486 µmol/min.

Take `CCCCCC1CC(=O)NC2=C1C(=O)C(=O)c1ccccc12` (stereo not drawn): the Activity in [1] turned out to be 175 µmol/min.

With `Cc1cccc(C2CC(=O)NC3=C2C(=O)C(=O)c2ccccc23)c1` (stereo not drawn), the Activity in [1] amounted to 333 µmol/min.

`COc1cc(C2CC(=O)NC3=C2C(=O)C(=O)c2ccccc23)ccc1O` (stereo not drawn): the GI50 in the data set with MCF7 was 1.89 µM; in the data set with A549 [8], 4.38 µM; in the data set on HepG2 [10], 2.24 µM. Further, in data set [1], the Activity is 1440 µmol/min.

Consider `O=C1CC(c2ccc([N+](=O)[O-])cc2)C2=C(N1)c1ccccc1C(=O)C2=O` (stereo not drawn), for which the Activity in [1] came out at 182 µmol/min.

With `O=C1CC(c2ccc(Cl)cc2)C2=C(N1)c1ccccc1C(=O)C2=O` (stereo not drawn), in data set [1], the Activity was 557 µmol/min.

For the molecule `O=C1CC(c2ccc(F)cc2)C2=C(N1)c1ccccc1C(=O)C2=O` (stereo not drawn), the Activity in data set [1] was 392 µmol/min.

Take `O=C1CC(c2cccc(O)c2)C2=C(N1)c1ccccc1C(=O)C2=O` (stereo not drawn): the Activity in data set [1] was found to be 509 µmol/min.

Turning to `COc1ccc(OC)c(C2CC(=O)NC3=C2C(=O)C(=O)c2ccccc23)c1` (stereo not drawn), the Activity in data set [1] is 180 µmol/min.

`CC(C)C1CC(=O)NC2=C1C(=O)C(=O)c1ccccc12` (stereo not drawn): in data set [1], the Activity was determined as 786 µmol/min.

With `COc1ccccc1C1CC(=O)NC2=C1C(=O)C(=O)c1ccccc12` (stereo not drawn), the Activity in [1] worked out at 354 µmol/min.

On to `O=C1CC(c2ccco2)C2=C(N1)c1ccccc1C(=O)C2=O` (stereo not drawn), for which the Activity in data set [1] was found to be 613 µmol/min.

In the case of `Cc1ccc(C2CC(=O)NC3=C2C(=O)C(=O)c2ccccc23)cc1` (stereo not drawn), the Activity in data set [1] is 275 µmol/min.

Turning to `O=C1CC(C2CCCCC2)C2=C(N1)c1ccccc1C(=O)C2=O` (stereo not drawn), the Activity in [1] was found to be 283 µmol/min.
